Molecular target: T1, CAH (cyanuric acid hydrolase from Azorhizobium caulinodans ORS 571) (Azorhizobium caulinodans, UniProt A8IKD2)
T1 construct: gene AZC_3892; heterologously expressed and purified; selenomethionine-substituted for the crystal; domains A 1-99, B 108-242, C 249-355; homotetramer
T1 sequence (A8IKD2 1-356): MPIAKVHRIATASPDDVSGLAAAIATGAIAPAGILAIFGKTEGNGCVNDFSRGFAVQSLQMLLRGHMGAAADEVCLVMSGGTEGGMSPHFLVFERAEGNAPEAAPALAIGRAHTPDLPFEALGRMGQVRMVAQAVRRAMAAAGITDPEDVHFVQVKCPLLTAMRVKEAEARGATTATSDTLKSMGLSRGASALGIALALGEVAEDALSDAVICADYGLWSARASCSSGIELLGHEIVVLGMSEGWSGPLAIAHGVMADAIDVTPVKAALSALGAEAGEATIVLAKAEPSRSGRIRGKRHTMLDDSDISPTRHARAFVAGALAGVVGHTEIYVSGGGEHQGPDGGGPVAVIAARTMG
Experiment: X-ray crystal structure of complex (SAD, […] Å)
Assay type: binding
Settings: selenomethionine protein; Tris-HCl pH 7.0-7.5, magnesium sulfate, 20 °C; active site in both subunits; second site on surface of one subunit at lower occupancy

## O=C1CC(=O)NC(=O)N1 [barbituric acid]
  X-ray crystal structure of complex (SAD, 2.7 Å): a molecule of the highly analogous substrate analog, barbituric acid was found

— paper PMC4051656, “Cyanuric Acid Hydrolase from Azorhizobium caulinodans ORS 571: Crystal Structure and Insights into a New Class of Ser-Lys Dyad Proteins” (PLoS ONE, 2014)
